Test results from ChEMBL document CHEMBL5352449, “Exploration and biological evaluation of 7-methoxy-3-methyl-1H-chromeno[4,3-c]pyrazol-4-one as an activating transcription factor 3 inducer for managing metabolic syndrome” (Eur J Med Chem, 2023).
Calls of active or inactive are those of the source. No cut-off for these calls is given here.

Legend:
[1] = Induction of AFT3 gene expression in mouse 3T3-L1 cells assessed as relative gene expression level at 50 uM incubated for 8 days by real time-PCR analysis (reference value: 1.00); type: functional; conditions: time 8 day
3T3-L1 [2] = experiment: (§1) Cytotoxicity against mouse 3T3-L1 adipocytes assessed as reduction in cell viability; type: toxicity, cell-based; conditions: 3t3-l1
[3] = as §1; type: toxicity, cell-based; conditions: 3T3-L1 adipocytes
3T3-L1 [4] = experiment: Induction of AFT3 expression in mouse 3T3-L1 cells at 50 to 100 uM incubated for 6 days by Western blot analysis; type: functional, cell-based; conditions: dose 50-100 µM, time 6.0 day
3T3-L1 [5] = experiment: Downregulation of lipid accumulation in mouse 3T3-L1 pre-adipocyte model at 50 to 100 uM incubated for […] by Oil Red O staining based analysis; type: functional, cell-based; conditions: dose 50-100 µM
Mus musculus [6] = species: Mus musculus; experiment: Inhibition of high fat diet induced metabolic disturbance in C57BL/6 mouse model assessed as reduction in hypertrophic eWAT adipocytes by H and E staining based analysis; type: functional, cell-based
Mus musculus [7] = experiment: Reduction in hepatic steatosis in high fat diet induced metabolic disturbance in C57BL/6 mouse model at 40 mg/kg, ip by hematoxylin and eosin staining based assay; type: functional, organism-based
Mus musculus [8] = species: Mus musculus; experiment: Inhibition of high fat diet induced metabolic disturbance in C57BL/6 mouse model assessed as reduction in hypertrophic iWAT adipocytes by H and E staining based analysis; type: functional, cell-based
Mus musculus [9] = experiment: Protection against hyperlipidemia in high fat diet-fed C57BL/6 mouse model assessed as reduction in hypo-triglyceridemic level at 40 mg/kg administered thrice weekly; type: functional, organism-based
Mus musculus [10] = experiment: Hepatoprotective activity in high fat diet induced C57BL/6 mouse assessed as reduction in GOT level at 40 mg/kg administered thrice weekly; type: functional, organism-based
Mus musculus [11] = experiment: Hepatoprotective activity in high fat diet induced C57BL/6 mouse assessed as reduction in GPT level at 40 mg/kg administered thrice weekly; type: functional, organism-based
Mus musculus [12] = species: Mus musculus; experiment: Anti-hyperglycemic activity in 16 hrs overnight fasted high fat diet induced C57BL/6 mouse assessed as reduction in insulin resistance measured at upto 120 mins; type: functional, organism-based
Mus musculus [13] = species: Mus musculus; experiment: Anti-hyperglycemic activity in 16 hrs overnight fasted high fat diet induced C57BL/6 mouse assessed as reduction in glucose intolerance measured at upto 120 mins; type: functional, organism-based
Mus musculus [14] = experiment: Protection against hyperlipidemia in high fat diet-fed C57BL/6 mouse model assessed as reduction in total plasma cholesterol level at 40 mg/kg administered thrice weekly; type: functional, organism-based
Mus musculus [15] = experiment: Inhibition of high fat diet induced metabolic disturbance in C57BL/6 mouse model assessed as reduction in size of epididymal white adipose tissue at 40 mg/kg, ip; type: functional, organism-based
Mus musculus [16] = experiment: Inhibition of high fat diet induced metabolic disturbance in C57BL/6 mouse model assessed as reduction in inguinal white adipose tissue weight at 40 mg/kg, ip; type: functional, organism-based
[17] = Inhibition of high fat diet induced metabolic disturbance in C57BL/6 mouse model assessed as reduction in body weight at 40 mg/kg, ip administered 3 times weekly for 10 weeks (reference value: 34.86 +/-[…]); type: functional
Mus musculus [18] = experiment: Inhibition of high fat diet induced metabolic disturbance in C57BL/6 mouse model assessed as reduction in […] adipose tissue weight at 40 mg/kg, ip; type: functional, organism-based
Mus musculus [19] = experiment: Inhibition of high fat diet induced metabolic disturbance in C57BL/6 mouse model assessed as reduction in epididymal white adipose tissue weight at 40 mg/kg, ip; type: functional, organism-based

Compound | Activity [1] | further results
OCc1c(C(F)(F)F)coc1-c1ccc2ccccc2c1O | 1.41 | 
COc1ccc2c(c1)oc(=O)c1c(C)onc12 | 1.62 | 
O=c1oc2cc(Br)ccc2c2[nH]nc(C(F)(F)F)c12 | 7.31 | Activity (3T3-L1 [2]): Toxic
Cc1[nH]nc(-c2ccc3ccccc3c2O)c1C(=O)O | 1.2 | 
COc1cccc2c1oc(=O)c1c(C(F)(F)F)n[nH]c12 | 1.81 | 
COc1ccc2c3c(c(=O)oc2c1)C(O)(C(F)(F)F)CO3 (centres undefined) | 1.39 | 
Cc1coc2c1c(=O)oc1c3ccccc3ccc21 | 1.94 | 
O=c1oc2c3ccccc3ccc2c2[nH]nc(C(F)(F)F)c12 | 1.62 | 
COc1ccc2c(c1)oc(=O)c1c(C(F)(F)F)n[nH]c12 | 1.55 | 
Cc1n[nH]c2c1c(=O)oc1c3ccccc3ccc21 | 1.84 | 
O=c1oc2c(ccc3ccccc32)c2c1C(O)(C(F)(F)F)CO2 (centres undefined) | 2.19 | 
Cc1n[nH]c2c1c(=O)oc1cc(F)ccc12 | 1.46 | 
COc1ccc(-c2n[nH]c(C)c2C(=O)O)c(O)c1 | 1.07 | 
O=c1oc2cc(Br)ccc2c2c1C(O)(C(F)(F)F)CO2 (centres undefined) | 1.08 | 
O=c1oc2c3ccccc3ccc2c2occ(C3CC3)c12 | 2.92 | 
O=C(O)c1coc2c1c(=O)oc1c3ccccc3ccc21 | 1.06 | 

Compound | Activity [1] | further results
COc1cccc2c1oc(=O)c1c(C)n[nH]c12 | 4.78 | CC50 [3]: > 100 µM; Activity (3T3-L1 [4]): Active; Activity (3T3-L1 [5]): Active
O=c1oc2c3ccccc3ccc2c2occ(CO)c12 | 1.39 | 
COc1ccc2c(c1)oc(=O)c1c(C(F)(F)F)coc12 | 2.8 | 
O=c1oc2cc(OCc3ccncc3)ccc2c2occ(C(F)(F)F)c12 | 1.23 | 
CC1(C)Oc2c(c(=O)oc3c2ccc2ccccc23)C1(C)C | 3.22 | 
Cc1n[nH]c2c1c(=O)oc1cc(Br)ccc12 | 2.12 | 
Cn1ncc2c3ccc4ccccc4c3oc(=O)c21 | 1.44 | 
O=c1oc2cc(O)ccc2c2c1C(O)(C(F)(F)F)CO2 (centres undefined) | 0.99 | 
COc1cccc2oc(=O)c3c(C)n[nH]c3c12 | 0.98 | 
O=c1oc2cc(O)ccc2c2occ(C(F)(F)F)c12 | 1.4 | 
Cc1coc2c1c(=O)oc1cc(Br)ccc12 | 1.28 | 
COc1ccc2c(c1)oc(=O)c1c(C)n[nH]c12 | 4.29 | inhibition (Mus musculus [6]): Active; Activity (Mus musculus [7]): Active; inhibition (Mus musculus [8]): Active; Activity (Mus musculus [9]): Active; Activity (Mus musculus [10]): inactive; Activity (Mus musculus [11]): Active; Activity (Mus musculus [12]): Active; CC50 [3]: > 100 µM; Activity (Mus musculus [13]): Active; Activity (3T3-L1 [4]): Active; Activity (Mus musculus [14]): Active; inhibition (Mus musculus [15]): Active; inhibition (Mus musculus [16]): Active; Activity [17]: 30 g; inhibition (Mus musculus [18]): Active; inhibition (Mus musculus [19]): Active
Cc1ccc2c(c1)oc(=O)c1c(C)n[nH]c12 | 1.38 | 
C[C@@H]1c2c(c3ccc4ccccc4c3oc2=O)O[C@@H]1C | 2.1 | inhibition (Mus musculus [6]): Active; inhibition (Mus musculus [8]): Active; Activity (Mus musculus [10]): inactive; Activity (Mus musculus [11]): inactive; Activity (Mus musculus [12]): Active; Activity (Mus musculus [13]): Active; Activity (Mus musculus [14]): Active; inhibition (Mus musculus [15]): Active; inhibition (Mus musculus [16]): Active; Activity [17]: 30.5 g; inhibition (Mus musculus [18]): Active; inhibition (Mus musculus [19]): Active
O=c1oc2c3ccccc3ccc2c2occ(C(F)(F)F)c12 | 1.44 | 
COc1ccc2c(c1)oc(=O)c1c(C3CC3)coc12 | 1.96 | 
